Laboratory results published in paper PMC9669016, “First-in-human phase Ia study of the PI3Kα inhibitor CYH33 in patients with solid tumors” (Nature Communications, 2022).

Tested on: patients with advanced solid tumors
Assay: Phase Ia safety, tolerability, DLT/MTD (TRAEs graded by NCI-CTCAE v4.03)
Format: in vivo
Text: This is a phase I clinical study (ClinicalTrials.gov identifier: NCT03544905), including a phase Ia study of oral CYH33 monotherapy in patients with advanced solid tumors, and a phase Ib study of oral CYH33 monotherapy focused on several specific tumors. […] The phase Ia study included dose-escalation stage and dose-expansion stage. […] The secondary outcomes also included evaluation of changes in PD biomarkers in response to CYH33 treatment (including proteomics of blood specimens at baseline and during treatment, immunocyte subpopulation ratios and molecular markers, cell free DNA in peripheral blood, and blood glucose). However, in compliance with the local human genetic resource regulations and procedures, peripheral blood samples were not obtained for PD biomarker analysis, therefore, only fasting blood glucose was obtained and used as a PD biomarker for CYH33 treatment. The exploratory objective was the relationship between the efficacy of CYH33 treatment and tumor biomarker status.
An accelerated titration design (ATD) and an mTPI-2 design were adopted to guide toxicity monitoring and dose escalation. The target DLT rate was 30%, with the acceptable toxicity probability interval of (0.25, 0.35). For the first two preset doses of 1 mg and 5 mg CYH33 in the ATD phase, if there were no grade ≥2 TRAEs during the DLT observation period, 100% dose escalation was allowed in the subsequent dose group. After entering the mTPI-2 phase, the SMC guidance was followed to determine the dose level, dosing frequency, and number of subjects in the next dose group, based on the previously obtained safety and PK data for that dose group. If necessary, it was permitted to add an additional dose level between two explored dose levels for further investigation.
During the phase Ia study, the safe and probably effective dose will be delivered to the expansion cohort to further investigate the safety, tolerability and efficacy of this dose level, while the dose escalation study can be continued simultaneously. If necessary, it is permitted to insert a new dose level between two explored dose levels for exploration. The subjects to be enrolled in the expansion cohort are patients with advanced solid tumors with PIK3CA gene mutations. When there are two or more dose groups at dose expansion simultaneously, the allocation ratio of the number of subjects in each dose group should be as close as possible to the ratio of ORR in each dose group. In principle, when the cumulative ORR at a certain dose level is <10%, the number of subjects in this dose group will be determined by the SMC. A total of approximately 60 patients are expected to be enrolled in the whole phase Ia study.
The secondary endpoints included preliminary efficacy assessments based on ORR, PFS, DoR, DCR, and clinical benefit rate, assessed per RECIST 1.1,PK parameters for CYH33 and its metabolite I27, and changes in PD biomarkers in response to CYH33 treatment.

[1] = all patients 1–60 mg QD, n = 51

COC(=O)Nc1cc(C(F)(F)F)c(-c2nc(N3CCOCC3)c3cc(CN4CCN(S(C)(=O)=O)CC4)cn3n2)cn1 [CYH33, methyl (5-(6-((4-(methylsulfonyl)piperazin-1-yl)methyl)−4-morpholinopyrrolo[2,1-f][1,2,4]triazin-2-yl)−4-(trifluoromethyl)pyridin-2-yl)carbamate]
Generalized oedema, Grade ≥ 3 TRAE (1–20 mg QD, n = 10): 0 n (%)
Grade ≥ 3 TRAEs in all patients (1–20 mg QD, n = 10): 2 (20.0) n (%)
Hyperglycemia, Grade ≥ 3 TRAE (1–20 mg QD, n = 10): 2 (20.0) n (%)
Hyperglycemia, all-grade TRAE (1–20 mg QD, n = 10): 7 (70.0) n (%)
Hyponatremia, all-grade TRAE (1–20 mg QD, n = 10): 0 n (%)
Mouth ulceration, Grade ≥ 3 TRAE (1–20 mg QD, n = 10): 0 n (%)
Mouth ulceration, all-grade TRAE (1–20 mg QD, n = 10): 1 (10.0) n (%)
Nausea, Grade ≥ 3 TRAE (1–20 mg QD, n = 10): 0 n (%)
Nausea, all-grade TRAE (1–20 mg QD, n = 10): 3 (30.0) n (%)
Peripheral edema, Grade ≥ 3 TRAE (1–20 mg QD, n = 10): 0 n (%)
Peripheral edema, all-grade TRAE (1–20 mg QD, n = 10): 1 (10.0) n (%)
Rash, Grade ≥ 3 TRAE (1–20 mg QD, n = 10): 0 n (%)
Rash, all-grade TRAE (1–20 mg QD, n = 10): 1 (10.0) n (%)
TRAEs leading to death (1–20 mg QD, n = 10): 0 n (%)
TRAEs leading to dose discontinuation (1–20 mg QD, n = 10): 0 n (%)
TRAEs leading to dose interruption (1–20 mg QD, n = 10): 2 (20.0) n (%)
TRAEs leading to dose reduction (1–20 mg QD, n = 10): 1 (10.0) n (%)
TRAEs occurring in ≥ 10% of patients (1–20 mg QD, n = 10): 7 (70.0) n (%)
Treatment-related serious adverse events (1–20 mg QD, n = 10): 0 n (%)
Vomiting, all-grade TRAE (1–20 mg QD, n = 10): 3 (30.0) n (%)
Weight loss, all-grade TRAE (1–20 mg QD, n = 10): 1 (10.0) n (%)
White blood cell count decreased, Grade ≥ 3 TRAE (1–20 mg QD, n = 10): 0 n (%)
recommended phase 2 dose (RP2D) (QD): 40 mg
Blood glucose increased, Grade ≥ 3 TRAE [1]: 1 (2.0) n (%)
Decreased appetite, Grade ≥ 3 TRAE [1]: 1 (2.0) n (%)
Decreased appetite, all-grade TRAE [1]: 21 (41.2) n (%)
Diabetic ketosis, Grade ≥ 3 TRAE [1]: 1 (2.0) n (%)
Diarrhea, Grade ≥ 3 TRAE [1]: 2 (3.9) n (%)
Diarrhea, all-grade TRAE [1]: 15 (29.4) n (%)
Dizziness, Grade ≥ 3 TRAE [1]: 1 (2.0) n (%)
Electrocardiogram QT prolonged, Grade ≥ 3 TRAE [1]: 1 (2.0) n (%)
Face oedema, Grade ≥ 3 TRAE [1]: 1 (2.0) n (%)
Facial edema, all-grade TRAE [1]: 8 (15.7) n (%)
Fatigue, Grade ≥ 3 TRAE [1]: 1 (2.0) n (%)
Fatigue, all-grade TRAE [1]: 9 (17.6) n (%)
Generalized oedema, Grade ≥ 3 TRAE [1]: 1 (2.0) n (%)
Grade ≥ 3 TRAEs in all patients [1]: 33 (64.7) n (%)
Hyperglycemia, Grade ≥ 3 TRAE [1]: 30 (58.8) n (%)
Hyperglycemia, all-grade TRAE [1]: 46 (90.2) n (%)
Hyponatremia, all-grade TRAE [1]: 6 (11.8) n (%)
Mouth ulceration, Grade ≥ 3 TRAE [1]: 1 (2.0) n (%)
Mouth ulceration, all-grade TRAE [1]: 6 (11.8) n (%)
Nausea, Grade ≥ 3 TRAE [1]: 1 (2.0) n (%)
Nausea, all-grade TRAE [1]: 19 (37.3) n (%)
Peripheral edema, Grade ≥ 3 TRAE [1]: 4 (7.8) n (%)
Peripheral edema, all-grade TRAE [1]: 13 (25.5) n (%)
Rash, Grade ≥ 3 TRAE [1]: 1 (2.0) n (%)
Rash, all-grade TRAE [1]: 9 (17.6) n (%)
TRAEs leading to death [1]: 0 n (%)
TRAEs leading to dose discontinuation [1]: 4 (7.8) n (%)
TRAEs leading to dose interruption [1]: 36 (70.6) n (%)
TRAEs leading to dose reduction [1]: 6 (11.8) n (%)
TRAEs occurring in ≥ 10% of patients [1]: 47 (92.2) n (%)
Treatment-related serious adverse events [1]: 6 (11.8) n (%)
Vomiting, all-grade TRAE [1]: 13 (25.5) n (%)
Weight loss, all-grade TRAE [1]: 16 (31.4) n (%)
White blood cell count decreased, Grade ≥ 3 TRAE [1]: 1 (2.0) n (%)
serious AEs nausea, vomiting, abdominal pain, dyspnea, hyperglycemia, pyrexia (each) (all patients, n = 1 each): 2.0%
dose reduction due to peripheral edema, weight loss, mouth ulceration, prolonged electrocardiogram QT (each) (all patients, n = 1 for each): 2.0%
dose reduction due to fatigue (all patients, n = 2): 4.0%
hyperglycemia leading to dose interruption (all patients, n = 32 of 51): 62.7%
patients with dose interruptions due to TRAEs (all patients, n = 36 of 51): 70.6%
Decreased appetite, all-grade TRAE (all patients, n = 51): 41.2%
Diarrhea, all-grade TRAE (all patients, n = 51): 29.4%
Facial edema, all-grade TRAE (all patients, n = 51): 15.7%
Fatigue, all-grade TRAE (all patients, n = 51): 17.6%
Hyperglycemia, Grade ≥ 3 TRAE (all patients, n = 51): 58.8%
Hyperglycemia, TRAE at any grade (all patients, n = 51): 90.2%
Hyponatremia, all-grade TRAE (all patients, n = 51): 11.8%
Mouth ulceration, all-grade TRAE (all patients, n = 51): 11.8%
Nausea, all-grade TRAE (all patients, n = 51): 37.3%
Peripheral edema, all-grade TRAE (all patients, n = 51): 25.5%
Rash, all-grade TRAE (all patients, n = 51): 17.6%
Vomiting, all-grade TRAE (all patients, n = 51): 25.5%
Weight loss, all-grade TRAE (all patients, n = 51): 31.4%
incidences of all other grade ≥3 TRAEs (all patients, n = 51): < 5%
treatment-related deaths (all patients, n = 51): No treatment-related deaths
Peripheral edema, grade 3 TRAE (all patients, n = 51 (four patients)): 7.8%
patients with dose reductions due to TRAEs (all patients, six of 51): 11.8%
patients with treatment-associated serious AEs (all patients, six of 51): 11.8%
patients who permanently discontinued CYH33 due to DLTs (all patients, three of 51): 5.9%
maximum tolerated dose (MTD) (once daily, single agent, dose-escalation stage (mTPI-2)): 40 mg
